Results published in patent US11542274B1, “Therapeutic compounds and methods of use thereof” (AGENCY FOR SCIENCE, TECHNOLOGY AND RESEARCH (A*STAR), priority 2019, dated 2023).

What follows are compounds tested on RAMOS cells (Burkitt's lymphoma cell line) (assay: Anti-proliferation assay (CellTiter-Glo)). Settings: Homo sapiens, 72 h, 3 days.
Format: cell-based
Procedure: In cell growth experiments, cells were seeded in 96-well cell culture plates at a density of 3000 of RAMOS cells/well in 100 μL of culture medium. 100 μL of the diluted solution containing the tested compound was added to the appropriate wells of the cell plate. After addition of the tested compound, the cells were incubated at 37° C. in an atmosphere of 5% CO2 for 3 days. CellTiter-Glo (CTG) reagent from the Promega CellTiter-Glo Luminescent Cell Viability Assay kit (#G7572) was added into an OptiPlate 96 (Perkin Elmer, White, Opaque, #6005299) in the dark, incubated for at least 2 hrs, and luminescence signal was read using Tecan Safire II Multi-Mode Plate Reader. The GI50 was calculated by nonlinear regression analysis using GraphPad Prism5 software.
GI50 is the concentration for 50% of maximal inhibition of cell proliferation.

Row | Compound | GI50 [µM]
1 | Cc1sc2c(c1C)C(c1ccc(Cl)cc1)=N[C@@H](CC(=O)NCCCCCNc1cc(-c3ccc4c(c3)NC(=O)C4)ccn1)c1nnc(C)n1-2 [Compound 096, (S)-2-(4-(4-chlorophenyl)-2,3,9-trimethyl-6H-thieno[3,2-f][1,2,4]triazolo[4,3-a][1,4]diazepin-6-yl)-N-(5-((4-(2-oxoindolin-6-yl)pyridin-2-yl)amino)pentyl)acetamide] | 0.1 to 1
2 | Cc1sc2c(c1C)C(c1ccc(Cl)cc1)=N[C@@H](CC(=O)NCCOCCOCCOCCNc1cc(-c3ccc4c(c3)CC(=O)N4)ccn1)c1nnc(C)n1-2 [Compound 097, (S)-2-(4-(4-chlorophenyl)-2,3,9-trimethyl-6H-thieno[3,2-f][1,2,4]triazolo[4,3-a][1,4]diazepin-6-yl)-N-(2-(2-(2-(2-((4-(2-oxoindolin-5-yl)pyridin-2-yl)amino)ethoxy)ethoxy)ethoxy)ethyl)acetamide] | > 1
3 | Cc1sc2c(c1C)C(c1ccc(Cl)cc1)=N[C@@H](CC(=O)Nc1ccc(OCCOCCOCCOCCNc3ccc(-c4ccc5c(c4)CC(=O)N5)cn3)cc1)c1nnc(C)n1-2 [Compound 098, (S)-2-(4-(4-chlorophenyl)-2,3,9-trimethyl-6H-thieno[3,2-f][1,2,4]triazolo[4,3-a][1,4]diazepin-6-yl)-N-(4-(2-(2-(2-(2-((5-(2-oxoindolin-5-yl)pyridin-2-yl)amino)ethoxy)ethoxy)ethoxy)ethoxy)phenyl)acetamide] | 0.001 to 0.1
4 | Cc1sc2c(c1C)C(c1ccc(Cl)cc1)=N[C@@H](CC(=O)NCCOCCOCCOCCNc1ccc(-c3ccc4c(c3)CC(=O)N4)cn1)c1nnc(C)n1-2 [Compound 099, (S)-2-(4-(4-chlorophenyl)-2,3,9-trimethyl-6H-thieno[3,2-f][1,2,4]triazolo[4,3-a][1,4]diazepin-6-yl)-N-(2-(2-(2-(2-((5-(2-oxoindolin-5-yl)pyridin-2-yl)amino)ethoxy)ethoxy)ethoxy)ethyl)acetamide] | 0.001 to 0.1
5 | Cc1sc2c(c1C)C(c1ccc(Cl)cc1)=N[C@@H](CC(=O)NCCOCCOCCOCCNc1ccc(-c3ccc4c(c3)NC(=O)C4)cn1)c1nnc(C)n1-2 [Compound 100, (S)-2-(4-(4-chlorophenyl)-2,3,9-trimethyl-6H-thieno[3,2-f][1,2,4]triazolo[4,3-a][1,4]diazepin-6-yl)-N-(2-(2-(2-(2-((5-(2-oxoindolin-6-yl)pyridin-2-yl)amino)ethoxy)ethoxy)ethoxy)ethyl)acetamide] | 0.1 to 1
6 | Cc1sc2c(c1C)C(c1ccc(Cl)cc1)=N[C@@H](CC(=O)NCCOCCOCCOCCNc1ccc(C(=O)Nc3ccc4c(c3)CC(=O)N4)cn1)c1nnc(C)n1-2 [Compound 101, (S)-6-((1-(4-(4-chlorophenyl)-2,3,9-trimethyl-6H-thieno[3,2-f][1,2,4]triazolo[4,3-a][1,4]diazepin-6-yl)-2-oxo-6,9,12-trioxa-3-azatetradecan-14-yl)amino)-N-(2-oxoindolin-5-yl)nicotinamide] | 0.1 to 1
7 | Cc1sc2c(c1C)C(c1ccc(Cl)cc1)=N[C@@H](CC(=O)Nc1ccc(OCCOCCOCCOCCNC(=O)c3cccc(-c4ccc5c(c4)NC(=O)C5)c3)cc1)c1nnc(C)n1-2 [Compound 102, (S)—N-(2-(2-(2-(2-(4-(2-(4-(4-chlorophenyl)-2,3,9-trimethyl-6H-thieno[3,2-f][1,2,4]triazolo[4,3-a][1,4]diazepin-6-yl)acetamido)phenoxy)ethoxy)ethoxy)ethoxy)ethyl)-3-(2-oxoindolin-6-yl)benzamide] | 0.1 to 1
8 | Cc1sc2c(c1C)C(c1ccc(Cl)cc1)=N[C@@H](CC(=O)Nc1ccc(OCCOCCOCCOCCNC(=O)c3cccc(-c4ccc5c(c4)CC(=O)N5)c3)cc1)c1nnc(C)n1-2 [Compound 103, (S)—N-(2-(2-(2-(2-(4-(2-(4-(4-chlorophenyl)-2,3,9-trimethyl-6H-thieno[3,2-f][1,2,4]triazolo[4,3-a][1,4]diazepin-6-yl)acetamido)phenoxy)ethoxy)ethoxy)ethoxy)ethyl)-3-(2-oxoindolin-5-yl)benzamide] | 0.1 to 1
9 | Cc1sc2c(c1C)C(c1ccc(Cl)cc1)=N[C@@H](CC(=O)Nc1ccc(OCCOCCOCCOCCNc3ccc(-c4ccc5c(c4)CC(=O)N5)cc3)cc1)c1nnc(C)n1-2 [Compound 104, (S)-2-(4-(4-chlorophenyl)-2,3,9-trimethyl-6H-thieno[3,2-f][1,2,4]triazolo[4,3-a][1,4]diazepin-6-yl)-N-(4-(2-(2-(2-(2-((4-(2-oxoindolin-5-yl)phenyl)amino)ethoxy)ethoxy)ethoxy)ethoxy)phenyl)acetamide] | 0.001 to 0.1
10 | Cc1sc2c(c1C)C(c1ccc(Cl)cc1)=N[C@@H](CC(=O)NCCCCCNc1ncccc1-c1ccc3c(c1)CC(=O)N3)c1nnc(C)n1-2 [Compound 105, (S)-2-(4-(4-chlorophenyl)-2,3,9-trimethyl-6H-thieno[3,2-f][1,2,4]triazolo[4,3-a][1,4]diazepin-6-yl)-N-(5-((3-(2-oxoindolin-5-yl)pyridin-2-yl)amino)pentyl)acetamide] | 0.001 to 0.1
11 | Cc1sc2c(c1C)C(c1ccc(Cl)cc1)=N[C@@H](CC(=O)Nc1ccc(OCCOCCNC(=O)c3cccc(-c4ccc5c(c4)CC(=O)N5)c3)cc1)c1nnc(C)n1-2 [Compound 106, (S)—N-(2-(2-(4-(2-(4-(4-chlorophenyl)-2,3,9-trimethyl-6H-thieno[3,2-f][1,2,4]triazolo[4,3-a][1,4]diazepin-6-yl)acetamido)phenoxy)ethoxy)ethyl)-3-(2-oxoindolin-5-yl)benzamide] | 0.001 to 0.1
12 | Cc1sc2c(c1C)C(c1ccc(Cl)cc1)=N[C@@H](CC(=O)NCCOCCOCCOCCNc1ncccc1-c1ccc3c(c1)CC(=O)N3)c1nnc(C)n1-2 [Compound 107, (S)-2-(4-(4-chlorophenyl)-2,3,9-trimethyl-6H-thieno[3,2-f][1,2,4]triazolo[4,3-a][1,4]diazepin-6-yl)-N-(2-(2-(2-(2-((3-(2-oxoindolin-5-yl)pyridin-2-yl)amino)ethoxy)ethoxy)ethoxy)ethyl)acetamide] | 0.001 to 0.1
13 | Cc1sc2c(c1C)C(c1ccc(Cl)cc1)=N[C@@H](CC(=O)NCCOCCOCCOCCNc1ncccc1-c1ccc3c(c1)NC(=O)C3)c1nnc(C)n1-2 [Compound 108, (S)-2-(4-(4-chlorophenyl)-2,3,9-trimethyl-6H-thieno[3,2-f][1,2,4]triazolo[4,3-a][1,4]diazepin-6-yl)-N-(2-(2-(2-(2-((3-(2-oxoindolin-6-yl)pyridin-2-yl)amino)ethoxy)ethoxy)ethoxy)ethyl)acetamide] | 0.1 to 1
14 | Cc1sc2c(c1C)C(c1ccc(Cl)cc1)=N[C@@H](CC(=O)NCCOCCOCCOCCC(=O)NC1CCN(C(=O)c3ccc4c(c3)CC(=O)N4)CC1)c1nnc(C)n1-2 [Compound 109, (S)-3-(2-(2-(2-(2-(4-(4-chlorophenyl)-2,3,9-trimethyl-6H-thieno[3,2-f][1,2,4]triazolo[4,3-a][1,4]diazepin-6-yl)acetamido)ethoxy)ethoxy)ethoxy)-N-(1-(2-oxoindoline-5-carbonyl)piperidin-4-yl)propanamide] | 0.001 to 0.1

The compounds below were run against truncated CRBN (319-427) (Homo sapiens (Human), UniProt Q96SW2) (assay: Fluorescence binding assay (fluorescence quenching), affinity to E3-CEREBLON (CRBN)-ubiquitin ligase). Settings: ubiquitination moiety and linker, pH 6.5.
Procedure: Fluorescence quenching end point measurements were performed in black polystyrene 384-plates on Tecan Safire monochromator reader with the following settings: excitation 280 nm; excitation bandwidth 10.0 nm; emission collection 340 nm; emission bandwidth 20.0 nm; high sensitivity flash mode; integration time 40 μS; delay 0 μm. All measurements were done in duplicates; GraphPad Prism 5.03 was used for data evaluation, curve fitting, plotting and determination of IC50 values.
Serial dilutions of each tested ligands were mixed with truncated CRBN (319-427) to a final volume of 25 μL in the assay buffer (20 mM sodium phosphate buffer, pH 6.5, with 150 mM sodium chloride). The final concentration of CRBN in all assay will be 5-10 μM with DMSO level at 4%. A control lanes were prepared with only tested ligands without the addition of CRBN, top up with assay buffer to 25 μL. Plates were incubated for 5 minutes and analyzed using the monochromator plate reader.
IC50 is the compound concentration that causes 50% quenching of the desired activity.

Sequence of truncated CRBN (319-427) (Q96SW2 319-427): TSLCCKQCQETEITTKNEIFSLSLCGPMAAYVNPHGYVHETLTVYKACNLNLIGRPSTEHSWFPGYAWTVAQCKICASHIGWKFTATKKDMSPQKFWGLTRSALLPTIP

Row | Compound | IC50 [µM]
15 | [N-]=[N+]=NCCOCCOCCOCCNc1ccc(-c2ccc3c(c2)NC(=O)C3)cn1 [Compound 089, 6-(6-((2-(2-(2-(2-azidoethoxy)ethoxy)ethoxy)ethyl)amino)pyridin-3-yl)indolin-2-one] | 100 to 300
16 | Nc1ccc(OCCOCCOCCOCCNC(=O)c2cccc(-c3ccc4c(c3)NC(=O)C4)c2)cc1 [Compound 090, N-(2-(2-(2-(2-(4-aminophenoxy)ethoxy)ethoxy)ethoxy)ethyl)-3-(2-oxoindolin-6-yl)benzamide] | 100 to 300
17 | Nc1ccc(OCCOCCOCCOCCNC(=O)c2cccc(-c3ccc4c(c3)CC(=O)N4)c2)cc1 [Compound 091, N-(2-(2-(2-(2-(4-aminophenoxy)ethoxy)ethoxy)ethoxy)ethyl)-3-(2-oxoindolin-5-yl)benzamide] | 1 to 100
18 | [N-]=[N+]=NCCOCCOCCOCCNc1ccc(-c2ccc3c(c2)CC(=O)N3)cn1 [Compound 092, 5-(6-((2-(2-(2-(2-azidoethoxy)ethoxy)ethoxy)ethyl)amino)pyridin-3-yl)indolin-2-one] | 1 to 100
19 | Nc1ccc(OCCOCCOCCOCCNc2ccc(-c3ccc4c(c3)CC(=O)N4)cn2)cc1 [Compound 093, 5-(6-((2-(2-(2-(2-(4-aminophenoxy)ethoxy)ethoxy)ethoxy)ethyl)amino)-pyridin-3-yl)indolin-2-one] | 1 to 100
20 | [N-]=[N+]=NCCOCCOCCOCCNc1ncccc1-c1ccc2c(c1)CC(=O)N2 [Compound 094, 5-(2-((2-(2-(2-(2-azidoethoxy)ethoxy)ethoxy)ethyl)amino)pyridin-3-yl)indolin-2-one] | 100 to 300
21 | [N-]=[N+]=NCCOCCOCCOCCNc1ncccc1-c1ccc2c(c1)NC(=O)C2 [Compound 095, 6-(2-((2-(2-(2-(2-azidoethoxy)ethoxy)ethoxy)ethyl)amino)pyridin-3-yl)indolin-2-one] | > 300

Same assay, conditions: ubiquitination moiety, pH 6.5

Row | Compound | IC50 [µM]
22 | N-(1-acetylpiperidin-4-yl)-2-oxoindoline-6-carboxamide [Compound 026] | > 300
